Reference: publication PMC3526713 (Journal of natural products, 2006)

Experiments:
[1] = target: horse serum butyrylcholinesterase (BChE) (Equus caballus, UniProt P81908)
Electric eel AChE = Electric eel AChE (Electrophorus electricus, UniProt O42275)
Sequence of Electric eel AChE (O42275 24-633): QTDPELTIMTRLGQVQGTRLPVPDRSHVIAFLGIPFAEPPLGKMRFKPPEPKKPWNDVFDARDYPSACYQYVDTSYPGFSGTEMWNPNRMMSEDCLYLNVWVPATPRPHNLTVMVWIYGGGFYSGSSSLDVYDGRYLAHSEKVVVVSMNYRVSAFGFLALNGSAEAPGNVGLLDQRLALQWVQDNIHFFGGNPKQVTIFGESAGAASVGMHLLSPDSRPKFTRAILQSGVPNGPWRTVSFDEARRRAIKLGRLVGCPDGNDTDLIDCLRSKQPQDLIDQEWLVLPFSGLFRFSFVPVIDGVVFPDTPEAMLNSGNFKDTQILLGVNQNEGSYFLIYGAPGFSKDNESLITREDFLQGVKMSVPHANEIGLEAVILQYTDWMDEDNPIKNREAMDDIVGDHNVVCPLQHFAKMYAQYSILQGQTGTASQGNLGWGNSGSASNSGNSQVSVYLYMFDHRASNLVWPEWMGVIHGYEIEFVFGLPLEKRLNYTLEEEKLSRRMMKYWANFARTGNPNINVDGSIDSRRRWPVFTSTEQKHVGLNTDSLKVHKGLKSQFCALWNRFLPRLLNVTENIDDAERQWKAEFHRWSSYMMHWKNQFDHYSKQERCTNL

Sequence of horse serum butyrylcholinesterase (BChE) (P81908 whole entry): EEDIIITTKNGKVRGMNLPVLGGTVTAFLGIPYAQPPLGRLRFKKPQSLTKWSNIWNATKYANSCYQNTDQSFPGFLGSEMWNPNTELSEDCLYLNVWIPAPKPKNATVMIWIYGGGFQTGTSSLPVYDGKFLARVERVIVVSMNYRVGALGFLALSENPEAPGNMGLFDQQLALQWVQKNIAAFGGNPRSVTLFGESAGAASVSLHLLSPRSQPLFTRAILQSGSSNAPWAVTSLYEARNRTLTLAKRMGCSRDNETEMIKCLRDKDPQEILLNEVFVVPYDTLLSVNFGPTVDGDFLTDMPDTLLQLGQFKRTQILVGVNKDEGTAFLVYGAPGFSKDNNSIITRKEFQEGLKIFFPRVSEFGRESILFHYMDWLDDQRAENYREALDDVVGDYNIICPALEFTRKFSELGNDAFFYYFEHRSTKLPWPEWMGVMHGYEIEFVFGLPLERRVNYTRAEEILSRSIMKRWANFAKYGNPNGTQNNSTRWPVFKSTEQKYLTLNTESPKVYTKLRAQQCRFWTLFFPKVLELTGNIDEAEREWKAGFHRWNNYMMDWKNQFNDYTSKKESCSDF

Compound | Effect on BChE [1] | Effect on AChE (Electric eel AChE)
COc1ccc2c(=O)oc3c(OC)cc(CCN(C)C)c4c(=O)oc1c2c34 [Compound 1, 1-(2-dimethylaminoethyl)-3,8-dimethoxychromeno[5,4,3-cde]chromene-5,10-dione] | no effect on BChE | –
COc1c(O)cc2c3c1-c1ccccc1C[C@H]3NCC2 [Compound 2, 1-methoxy-5,6,6a,7-tetrahydro-4H-dibenzo[de,g]quinolin-2-ol (6aR)] | effects on neither AChE nor BChE | effects on neither AChE nor BChE
